Where a name gives a salt, the structure may show the parent alone.

The first data set relates to TNF-α production induced by lipopolysaccharide (LPS) stimulation. The data set is described as follows: Inhibitory effects on TNF-α production induced by LPS stimulation, in vivo test in rats (method of McGeehan et al.). Conditions: Rattus norvegicus, 2 h; female rats; LPS from Salmonella s.c.; oral administration of 10 mg/kg test compound immediately after LPS; plasma TNF-α by ELISA two hours after LPS; read-out: TNF-α production inhibition rate (%). Here is the method: Inhibitory effects on TNF-α production induced by lipopolysaccharide (LPS) stimulation were studied by in vivo tests according to the method of McGeehan et al. (Nature, 370, 558-561 (1994)).
Female rats (five per group), body weight of about 200 g, about eight weeks old, were used as test animals. LPS from Salmonella was dissolved in physiological saline to prepare an LPS solution (1 mg/ml). Test compounds were dissolved or uniformly suspended in a 1% aqueous methylcellulose solution to give test compound preparation liquids.
The above-mentioned LPS solution (0.5 ml/kg) was subcutaneously administered to the rat. Immediately after the LPS administration, the test compound preparation liquid (5 ml/kg, containing 10 mg/kg test compound) was orally administered. Two hours after the LPS administration, blood was collected from abdominal aorta and was centrifuged at 4° C. and 3000 rpm for ten minutes. TNF-α levels in the obtained plasma were measured with a rat TNF-α -specific ELISA kit. TNF-α was not observed in the plasma with respect to an LPS-nonadministered group (control).
TNF-α production inhibition rates of the test compounds were determined by the following equation.
Inhibition rate (%)=[(A−B)/A]×100
A: TNF-α level in plasma of test compound-nonadministered group
B: TNF-α level in plasma of test compound-administered group
(In general: An ELISA detects its analyte on a solid surface through an enzyme-linked reagent.)
The term inhibition denotes the relative decrease from the control value, in per cent. `CC(=O)SCCN(CCC12CC3CC(CC(C3)C1)C2)C(=O)NCc1ccncc1` [Compound No. 8-4, 1-[2-(Acetylthio)ethyl]-1-[2-(1-adamantyl)ethyl]-3-(4-pyridylmethyl)urea hydrochloride]: the inhibition at 10 mg/kg came out at 81%.

In the case of `CC(=O)SCCN(CCc1ccccc1)C(=O)NCCCc1ccncc1` [Compound No. 4-16, 1-[2-(Acetylthio)ethyl]-1-phenethyl-3-[3-(4-pyridyl)propyl]urea], the inhibition at 10 mg/kg stood at 77.2%.

For the compound `CC(=O)SCCN(CCC1=CCCCC1)C(=O)NCc1ccncc1` [Compound No. 8-10, 1-[2-(Acetylthio)ethyl]-1-[2-(1-cyclohexenyl)ethyl]-3-(4-pyridylmethyl)urea hydrochloride], the inhibition at 10 mg/kg amounted to 69%.

For `CC(=O)SCCN(CCC1CCCCC1)C(=O)NCCc1ccncc1` [Compound No. 4-2, 1-[2-(Acetylthio)ethyl]-1-(2-cyclohexylethyl)-3-[2-(4-pyridyl)ethyl]urea], the inhibition at 10 mg/kg came to 72.5%.

`CC(=O)SCCN(CCc1ccccc1)C(=O)NCCCc1cccnc1` [Compound No. 4-15, 1-[2-(Acetylthio)ethyl]-1-phenethyl-3-[3-(3-pyridyl)propyl]urea]: the inhibition at 10 mg/kg worked out at 77.3%.

As to `CC(=O)SCCN(CCC1CCCCC1)C(=O)NCCCc1ccncc1` [Compound No. 4-3, 1-[2-(Acetylthio)ethyl]-1-(2-cyclohexylethyl)-3-[3-(4-pyridyl)propyl]urea], the inhibition at 10 mg/kg came to 80.8%.

Turning to `CC(=O)SCCN(CCc1ccc(F)cc1)C(=O)NCCCc1ccncc1` [Compound No. 4-18, 1-[2-(Acetylthio)ethyl]-1-(4-fluorophenethyl)-3-[3-(4-pyridyl)propyl]urea], the inhibition at 10 mg/kg amounted to 64.2%.

Regarding `CC(=O)SCCN(CCCc1ccccc1)C(=O)NCCCc1ccncc1` [Compound No. 4-17, 1-[2-(Acetylthio)ethyl]-1-(3-phenylpropyl)-3-[3-(4-pyridyl)propyl]urea], the inhibition at 10 mg/kg was 70.6%.

Take `CC(=O)SCCN(CCC1CCCCC1)C(=O)NCc1ccncc1` [Compound No. 8-1, 1-[2-(Acetylthio)ethyl]-1-(2-cyclohexylethyl)-3-(4-pyridylmethyl)urea hydrochloride]: the inhibition at 10 mg/kg worked out at 80%.

Regarding `CSCCN(CCC1CCCCC1)C(=O)NCCCc1ccncc1` [Compound No. 5-1, 1-(2-Cyclohexylethyl)-1-[2-(methylthio)ethyl]-3-[3-(4-pyridyl)propyl]urea], the inhibition at 10 mg/kg was 74.9%.

Turning to `CC(=O)SCCN(CCC1CCCC1)C(=O)NCc1ccncc1` [Compound No. 8-3, 1-[2-(Acetylthio)ethyl]-1-(2-cyclopentylethyl)-3-(4-pyridylmethyl)urea hydrochloride], the inhibition at 10 mg/kg was found to be 78.9%.

Take `CSCCN(CCC1CCCCC1)C(=O)NCc1ccncc1` [Compound No. 5-2, 1 (2-Cyclohexylethyl)-1-[2-(methylthio)ethyl]-3-(4-pyridylmethyl)urea]: the inhibition at 10 mg/kg was 81.2%.

Turning to `O=C(NCCCc1ccncc1)N(CCS)CCC1CCCCC1` [Compound No. 8-11, 1-(2-Cyclohexylethyl)-1-(2-mercaptoethyl)-3-[3-(4-pyridyl)propyl]urea hydrochloride], the inhibition at 10 mg/kg came to 63.6%.

System in a further data set: not given
Experiment: not given
Details: not given
By melting point is commonly meant the temperature, or range, at which the solid turns liquid. Regarding `CC(=O)SCCN(CCC1CCCCC1)C(=O)NCCCc1ccncc1` [Compound No. 4-3, 1-[2-(Acetylthio)ethyl]-1-(2-cyclohexylethyl)-3-[3-(4-pyridyl)propyl]urea], the melting point was 70 °C.

For the origin of these results see US6420398B2, “Urea derivatives having nitrogen aromatic heterocycle” (Santen Pharmaceutical Co., Ltd., priority 1998, dated 2002).
